ChEMBL document CHEMBL4004877, “Synthesis and biological evaluation of chalcone, dihydrochalcone, and 1,3-diarylpropane analogs as anti-inflammatory agents” (Bioorg Med Chem Lett, 2017)
In brackets after ≈: the same amount, converted by molar mass.

Tests used:
[1] = Cytotoxicity against LPS-stimulated mouse RAW264.7 cells assessed as cell viability at 1.25 ug/ml after 24 hrs by MTT assay relative to control; type: cell-based; conditions: LPS-stimulated RAW264.7 cells, read-out: Activity
RAW264.7 [2] = assay: Antiinflammatory activity in mouse RAW264.7 cells assessed as inhibition of LPS induced iNOS-dependent nitric oxide production at 2.5 ug/ml after 24 hrs by Griess assay relative to control; type: functional; conditions: RAW264.7, 24 h
[3] = Cytotoxicity against LPS-stimulated mouse RAW264.7 cells assessed as cell viability at 2.5 ug/ml after 24 hrs by MTT assay relative to control; type: cell-based; conditions: LPS-stimulated RAW264.7 cells, read-out: Activity
RAW264.7 [4] = assay: Antiinflammatory activity in mouse RAW264.7 cells assessed as inhibition of LPS induced iNOS-dependent nitric oxide production at 5 ug/ml after 24 hrs by Griess assay relative to control; type: functional; conditions: RAW264.7, 24 h
[5] = Cytotoxicity against LPS-stimulated mouse RAW264.7 cells assessed as cell viability at 5 ug/ml after 24 hrs by MTT assay relative to control; type: cell-based; conditions: LPS-stimulated RAW264.7 cells, read-out: Activity
[6] = Cytotoxicity against LPS-stimulated mouse RAW264.7 cells assessed as cell viability at 10 ug/ml after 24 hrs by MTT assay relative to control; type: cell-based; conditions: LPS-stimulated RAW264.7 cells, read-out: Activity
RAW264.7 [7] = assay: Antiinflammatory activity in mouse RAW264.7 cells assessed as inhibition of LPS induced iNOS-dependent nitric oxide production at 10 ug/ml after 24 hrs by Griess assay relative to control; type: functional; conditions: RAW264.7, 24 h
RAW264.7 [8] = assay: Antiinflammatory activity in mouse RAW264.7 cells assessed as inhibition of LPS induced iNOS-dependent nitric oxide production after 24 hrs by Griess assay; type: functional, cell-based; conditions: RAW264.7, 24 h
RAW264.7 [9] = assay: Antiinflammatory activity in mouse RAW264.7 cells assessed as inhibition of LPS induced iNOS-dependent nitric oxide production at 1.25 ug/ml after 24 hrs by Griess assay relative to control; type: functional; conditions: RAW264.7, 24 h

Row | Compound | IC50 (RAW264.7 [8]) [µg/mL] | viability at 24 h, 1.25 ug/ml [1] [%] | inhibition at 2.5 µg/mL (RAW264.7 [2]) [%] | viability at 24 h, 2.5 ug/ml [3] [%] | inhibition at 5 µg/mL (RAW264.7 [4]) [%] | viability at 24 h, 5 ug/ml [5] [%] | viability at 24 h, 10 ug/ml [6] [%] | inhibition at 10 µg/mL (RAW264.7 [7]) [%] | inhibition at 1.25 µg/mL (RAW264.7 [9]) [%]
1 | COc1ccc(CCCc2ccc(OC)c(OC)c2)cc1 | 8.69 (≈ 30.3 µM) | 100 | 15.1 | 100 | 28.6 | 96.9 | 95.1 | 55.4 | 12.9
2 | COc1cc(CCCc2ccc3c(c2)OCO3)ccc1O | 3.64 (≈ 12.7 µM) | 98.5 | 46.8 | 96.2 | 52.7 | 93.3 | 58.2 | 78.3 | 42.4
3 | COc1ccc(C(=O)/C=C/c2ccc3c(c2)OCO3)c(O)c1 | 1.25 (≈ 4.19 µM) | 96.4 | 5.7 | 91.7 | 3 | 75.2 | 72 | 8.6 | 50.2
4 | COc1cc(C(=O)/C=C/c2ccc3c(c2)OCO3)ccc1O | 6.3 (≈ 21.1 µM) | 100 | 0.6 | 85.3 | 49.1 | 81.1 | 72.7 | 51.8 | 5.3
5 | COc1ccc(CCCc2ccc3c(c2)OCO3)c(O)c1 | 4.12 (≈ 14.4 µM) | 97.5 | 39.4 | 95.3 | 54.1 | 71.4 | 15.6 | 85.9 | 32.6
6 | COc1ccc(C(=O)/C=C/c2ccc(OC)c(OC)c2)c(O)c1 | 5.05 (≈ 16.1 µM) | 99.7 | 3 | 92.6 | 49.6 | 73.9 | 70 | 77.3 | 9.1
7 | COc1ccc(/C=C/C(=O)c2ccc(OC)cc2O)cc1 | 4.73 (≈ 16.6 µM) | 93.3 | 3.5 | 72.3 | 54 | 75.2 | 72.6 | 78.2 | 9.4
8 | COc1ccc(/C=C/C(=O)c2ccc(OC)c(OC)c2)cc1O | > 10 | 91.4 | 1.8 | 82.1 | 2.6 | 73 | 73.5 | 9.8 | 1.1
9 | O=C(/C=C/c1ccc2c(c1)OCO2)c1ccc(O)cc1 | 9.56 (≈ 35.6 µM) | 99.2 | 1.1 | 95.2 | 14.1 | 88.5 | 68 | 52.5 | 4.9
10 | COc1ccc(CCC(=O)c2ccc(OC)c(OC)c2)cc1OC | > 10 | 99.6 | 8.2 | 98 | 13.8 | 96.2 | 95.3 | 31.1 | 5.9
11 | COc1ccc(/C=C/C(=O)c2ccc(OC)c(OC)c2)cc1 | 2.43 (≈ 8.15 µM) | 97.2 | 52 | 93.1 | 52.1 | 78.9 | 73.9 | 85.5 | 5.1
12 | COc1ccc(/C=C/C(=O)c2ccc(OC)c(OC)c2)cc1OC | > 10 | 94 | 1.7 | 91.9 | 2 | 81.3 | 60.4 | 3.3 | 0.2

More lines, main results first:

Row | IC50 (RAW264.7 [8]) [µg/mL] | Compound | viability at 24 h, 1.25 ug/ml [1] [%] | inhibition at 2.5 µg/mL (RAW264.7 [2]) [%] | viability at 24 h, 2.5 ug/ml [3] [%] | inhibition at 5 µg/mL (RAW264.7 [4]) [%] | viability at 24 h, 5 ug/ml [5] [%] | viability at 24 h, 10 ug/ml [6] [%] | inhibition at 10 µg/mL (RAW264.7 [7]) [%] | inhibition at 1.25 µg/mL (RAW264.7 [9]) [%]
13 | 9.42 (≈ 32.9 µM) | COc1ccc(CCC(=O)c2cccc(O)c2)c(OC)c1 | 92.1 | 17.1 | 88.5 | 25.4 | 88.8 | 74.8 | 52.3 | 7.9
14 | > 10 | COc1ccc(CCC(=O)c2cccc(O)c2)cc1 | 97.5 | 11 | 97.1 | 20.1 | 94.5 | 86.3 | 40.5 | 5.1
15 | 2.42 (≈ 8.51 µM) | COc1ccc(OC)c(/C=C/C(=O)c2cccc(O)c2)c1 | 99 | 52.3 | 72.4 | 52.4 | 67.3 | 62.5 | 77.1 | 2.8
16 | > 10 | COc1ccc(C(=O)CCc2ccc(OC)cc2OC)c(O)c1 | 97.8 | 3.4 | 96.2 | 9 | 87.4 | 83.4 | 21.6 | 3
17 | > 10 | COc1cc(C(=O)CCc2cccc(OC)c2OC)ccc1O | 94.1 | 4.4 | 94.5 | 15.9 | 91.1 | 90.5 | 33.3 | 0.1
18 | 7.86 (≈ 24.8 µM) | COc1ccc(C(=O)CCc2ccc(OC)c(OC)c2)c(O)c1 | 91.8 | 23.9 | 89 | 38.3 | 75.2 | 67.5 | 56.2 | 18.4
19 | 6.71 (≈ 22.2 µM) | COc1ccc(CCCc2ccc(OC)cc2OC)c(O)c1 | 100 | 26.9 | 97.7 | 35.2 | 91.5 | 25.8 | 70 | 10.4
20 | 6.92 (≈ 25.4 µM) | COc1ccc(CCCc2cccc(O)c2)c(OC)c1 | 98.5 | 18 | 97 | 24.6 | 95.9 | 67.9 | 78.8 | 16.2
21 | > 10 | COc1ccc(CCCc2cccc(O)c2)cc1OC | 99.9 | 5.4 | 98.5 | 15.4 | 94.8 | 78.8 | 44.7 | 13.9
22 | > 10 | COc1ccc(C(=O)CCc2ccc3c(c2)OCO3)c(OC)c1 | 87.4 | 4.5 | 87.2 | 6.6 | 83.2 | 81 | 9.8 | 0.2
23 | 9.78 (≈ 35.9 µM) | COc1cc(CCC(=O)c2cccc(O)c2)ccc1O | 100 | 19.8 | 98.9 | 23.2 | 96.1 | 91 | 50.9 | 5.6
24 | > 10 | COc1ccc(CCC(=O)c2ccc(OC)c(OC)c2)cc1O | 95.6 | 6.3 | 92.1 | 17.3 | 91.8 | 83.9 | 31 | 2.9
25 | > 10 | COc1ccc(C(=O)/C=C/c2cc(OC)ccc2OC)c(O)c1 | 95.4 | 0.7 | 93.3 | 6.1 | 71.1 | 66.5 | 26.6 | 7.4
26 | > 10 | COc1cc(/C=C/C(=O)c2cccc(O)c2)ccc1O | 96.9 | 3.2 | 94 | 3.2 | 63.8 | 62.6 | 12.2 | 3
27 | 9.42 (≈ 33.1 µM) | COc1ccc(/C=C/C(=O)c2cccc(O)c2)c(OC)c1 | 97.7 | 2.3 | 74 | 9 | 63 | 61.6 | 53.9 | 1.6
